We go through six molecules from US6365603B1, “Aromatic compounds and pharmaceutical compositions containing them” (Zeneca Ltd., priority 1995, dated 2002).

Tested on in the first data set: not given
Conditions: not given
Consider `CCCOc1ccc(Br)cc1CN(CC)c1ccc(C(=O)O)nn1` [Example 18, 6-(N-[5-Bromo-2-propoxybenzyl]-N-ethylamino)pyridazine-3-carboxylic acid], for which the melting point lay in the range of 135 to 137 °C.

`CCN(Cc1cc(Cl)ccc1OCC1CC1)c1ccc(-c2nnn[nH]2)nn1` [Example 23, 5-[6-(N-[5-Chloro-2-cyclopropylmethoxybenzyl]-N-ethylamino)pyridazin-3-yl]tetrazole] came in with a melting point of 190 to 192 °C.

As to `CCN(Cc1cc(Cl)ccc1OCC1CC1)c1ccc(C(N)=O)nn1` [Example 21, 6-[N-(5-Chloro-2-(cyclopropylmethoxy)benzyl)-N-ethylamino]pyridazine-3-carboxamide], the melting point fell in the range of 177 to 178 °C.

`CCN(Cc1cc(Cl)ccc1OCC1CC1)c1ccc(C(=O)O)nn1` [Example 22, 6-[N-(5-Chloro-2-(cyclopropylmethoxy)benzyl)-N-ethylamino]pyridazine-3-carboxylic acid] displayed a melting point of 119 to 120 °C.

In turn, `CCN(Cc1cc(Br)ccc1OCC1CC1)c1ccc(C(=O)O)nn1` [Example 3, 6-[N-(5-Bromo-2-(cyclopropylmethoxy)benzyl)-N-ethylamino]pyridazine-3-carboxylic acid] gave a melting point of 73 to 80 °C.

In a further data set the test system is EP1 receptors. Particulars: guinea pig ileum, dog fundus, cat trachea, chick ileum; cited from earlier work.
For `CC(=O)NNC(=O)N1Cc2ccccc2Oc2ccc(Cl)cc21` [SC-19220], the “block of the effect of PGE2 on tissues” value is on record as “blocks the effect of PGE2 on some tissues such as guinea pig ileum or dog fundus but not on other tissues such as the cat trachea or chick ileum”.

One may read the melting point as the temperature of the solid-liquid transition.
